Measurements from patent publication US12077503B2, “Substituted cyclic amides and their use as herbicides” (FMC CORPORATION, priority 2015, dated 2024).

Legend:
Format in all cases: in vivo
[1] = system: Galium (catchweed bedstraw, Galium aparine); assay: Test A postemergence; conditions: Galium, post-emergence, 240 h, read-out: Plant response rating, Galium; for pest or weed control at 125 g/ha: 125 g ai/ha, postemergence, visual injury after approximately 10 d, 0 to 100 scale (0 no effect, 100 complete control); for pest or weed control at 31 g/ha: Postemergence, 31 g ai/ha, visual injury after approx. 10 d, 0 to 100 scale, 0 no effect, 100 complete control
How it was run: (§1)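 Greenhouse, ~10 d after spray; visual injury vs untreated controls, 0 = no effect, 100 = complete control. Preemergence: directed soil spray over planted seeds. Postemergence: plants 2–10 cm, 1–2 leaf stage. Loam/sand blend. Compound in non-phytotoxic solvent with surfactant.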

[2] = system: Kochia (Kochia scoparia); assay: Test A postemergence; conditions: Bassia scoparia, post-emergence, 240 h, read-out: Plant response rating, Kochia; for pest or weed control at 125 g/ha: 125 g ai/ha, postemergence, visual injury after approximately 10 d, 0 to 100 scale (0 no effect, 100 complete control); for pest or weed control at 31 g/ha: Postemergence, 31 g ai/ha, visual injury after approx. 10 d, 0 to 100 scale, 0 no effect, 100 complete control
How it was run: as §1

[3] = system: barnyardgrass (Echinochloa crus-galli); assay: Test A postemergence; conditions: Echinochloa crus-galli, post-emergence, 240 h, read-out: Plant response rating, Barnyardgrass; for pest or weed control at 125 g/ha: 125 g ai/ha, postemergence, visual injury after approximately 10 d, 0 to 100 scale (0 no effect, 100 complete control); for pest or weed control at 31 g/ha: Postemergence, 31 g ai/ha, visual injury after approx. 10 d, 0 to 100 scale, 0 no effect, 100 complete control
How it was run: as §1

[4] = system: blackgrass (Alopecurus myosuroides); assay: Test A postemergence; conditions: Alopecurus myosuroides, post-emergence, 240 h, read-out: Plant response rating, Blackgrass; for pest or weed control at 125 g/ha: 125 g ai/ha, postemergence, visual injury after approximately 10 d, 0 to 100 scale (0 no effect, 100 complete control); for pest or weed control at 31 g/ha: Postemergence, 31 g ai/ha, visual injury after approx. 10 d, 0 to 100 scale, 0 no effect, 100 complete control
How it was run: as §1

[5] = system: corn (Zea mays); assay: Test A postemergence; conditions: Zea mays, post-emergence, 240 h; for Corn plant response rating (crop injury, 0 = no effect, 100 = complete kill) at 125 g/ha: 125 g ai/ha, postemergence, visual injury after approximately 10 d, 0 to 100 scale (0 no effect, 100 complete control); for Corn plant response rating (crop injury, 0 = no effect, 100 = complete kill) at 31 g/ha: Postemergence, 31 g ai/ha, visual injury after approx. 10 d, 0 to 100 scale, 100 complete control
How it was run: as §1

[6] = system: giant foxtail (Setaria faberii); assay: Test A postemergence; conditions: Setaria faberi, post-emergence, 240 h, read-out: Plant response rating, Foxtail, Giant; for pest or weed control at 125 g/ha: 125 g ai/ha, postemergence, visual injury after approximately 10 d, 0 to 100 scale (0 no effect, 100 complete control); for pest or weed control at 31 g/ha: Postemergence, 31 g ai/ha, visual injury after approx. 10 d, 0 to 100 scale, 0 no effect, 100 complete control
How it was run: as §1

[7] = system: pigweed (Amaranthus retroflexus); assay: Test A postemergence; conditions: Amaranthus retroflexus, post-emergence, 240 h, read-out: Plant response rating, Pigweed; for pest or weed control at 125 g/ha: 125 g ai/ha, postemergence, visual injury after approximately 10 d, 0 to 100 scale (0 no effect, 100 complete control); for pest or weed control at 31 g/ha: Postemergence, 31 g ai/ha, visual injury after approx. 10 d, 0 to 100 scale, 0 no effect, 100 complete control
How it was run: as §1

[8] = system: ragweed (common ragweed, Ambrosia elatior); assay: Test A postemergence; conditions: Ambrosia artemisiifolia, post-emergence, 240 h, read-out: Plant response rating, Ragweed; for pest or weed control at 125 g/ha: 125 g ai/ha, postemergence, visual injury after approximately 10 d, 0 to 100 scale (0 no effect, 100 complete control); for pest or weed control at 31 g/ha: Postemergence, 31 g ai/ha, visual injury after approx. 10 d, 0 to 100 scale, 0 no effect, 100 complete control
How it was run: as §1

[9] = system: ryegrass, Italian (Italian ryegrass, Lolium multiflorum); assay: Test A postemergence; conditions: Lolium multiflorum, post-emergence, 240 h, read-out: Plant response rating, Ryegrass, Italian; for pest or weed control at 125 g/ha: 125 g ai/ha, postemergence, visual injury after approximately 10 d, 0 to 100 scale (0 no effect, 100 complete control); for pest or weed control at 31 g/ha: Postemergence, 31 g ai/ha, visual injury after approx. 10 d, 0 to 100 scale, 0 no effect, 100 complete control
How it was run: as §1

[10] = system: wheat (Triticum aestivum); assay: Test A postemergence; conditions: Triticum aestivum, post-emergence, 240 h, read-out: Plant response rating, Wheat; for plant injury at 125 g/ha: 125 g ai/ha, postemergence, visual injury after approximately 10 d, 0 to 100 scale (0 no effect, 100 complete control); for plant injury at 31 g/ha: Postemergence, 31 g ai/ha, visual injury after approx. 10 d, 0 to 100 scale, 0 no effect, 100 complete control
How it was run: as §1

[11] = system: barnyardgrass (Echinochloa crus-galli); assay: Test B flooded paddy test; conditions: Echinochloa crus-galli, Flood, 250 g ai/ha; scale of 0 to 100 where 0 is no effect and 100 is complete control; read-out: Barnyardgrass plant response rating
How it was run: (§2)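 2-leaf plants; pots flooded 3 cm over soil; cpd added to paddy water; depth held; greenhouse 13–15 d; visual rating vs controls, 0 = no effect, 100 = complete control.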

[12] = system: ducksalad (Heteranthera limosa); assay: Test B flooded paddy test; conditions: Heteranthera limosa, Flood, 250 g ai/ha; scale of 0 to 100 where 0 is no effect and 100 is complete control; read-out: Ducksalad plant response rating
How it was run: as §2

[13] = system: rice (Oryra sativa); assay: Test B flooded paddy test; conditions: Oryza sativa, Flood, 250 g ai/ha; scale of 0 to 100 where 0 is no effect and 100 is complete control; read-out: Rice plant response rating
How it was run: as §2

[14] = system: sedge, umbrella (small-flower umbrella sedge, Cyperus difformis); assay: Test B flooded paddy test; conditions: Cyperus difformis, Flood, 250 g ai/ha; scale of 0 to 100 where 0 is no effect and 100 is complete control; read-out: Sedge, Umbrella plant response rating
How it was run: as §2

| Structure (SMILES) | pest or weed control at 125 g/ha [1] [%] | pest or weed control at 125 g/ha [2] [%] | pest or weed control at 125 g/ha [3] [%] | pest or weed control at 125 g/ha [4] [%] | Corn plant response rating (crop injury, 0 = no effect, 100 = complete kill) at 125 g/ha [5] [%] | pest or weed control at 125 g/ha [6] [%] | pest or weed control at 125 g/ha [7] [%] | pest or weed control at 125 g/ha [8] [%] | pest or weed control at 125 g/ha [9] [%] | pest or weed control at 250 g/ha [11] [%] | pest or weed control at 250 g/ha [12] [%] | pest or weed control at 250 g/ha [13] [%] | pest or weed control at 250 g/ha [14] [%] | pest or weed control at 31 g/ha [1] [%] | pest or weed control at 31 g/ha [2] [%] | pest or weed control at 31 g/ha [3] [%] | pest or weed control at 31 g/ha [4] [%] | Corn plant response rating (crop injury, 0 = no effect, 100 = complete kill) at 31 g/ha [5] [%] | pest or weed control at 31 g/ha [6] [%] | pest or weed control at 31 g/ha [7] [%] | also measured |
| --- | --- | --- | --- | --- | --- | --- | --- | --- | --- | --- | --- | --- | --- | --- | --- | --- | --- | --- | --- | --- | --- |
| CN1C[C@H](c2cc(F)cc(F)c2)[C@@H](C(=O)Nc2ncccc2F)C1=O [Compound 783] | 0 | 0 | 0 | 0 | 0 | 0 | 0 | 0 | 0 | 0 | 0 | 0 | 0 | – | – | – | – | – | – | – | plant injury at 125 g/ha [10]: 0% |
| CS(=O)(=O)c1ccccc1NC(=O)[C@H]1C(=O)NC[C@@H]1c1ccc(OC(F)F)cc1 [Compound 787] | 60 | 60 | 30 | 0 | 0 | 20 | 60 | 50 | 20 | 0 | 50 | 0 | 0 | – | – | – | – | – | – | – | plant injury at 125 g/ha [10]: 0% |
| C/C=C/C1CNC(=O)C1C(=O)Nc1cccc(F)c1F (stereo not drawn) [Compound 793] | 0 | 0 | 0 | 0 | 0 | 0 | 0 | 0 | 0 | 0 | 25 | 0 | 25 | 0 | 0 | 0 | 0 | 0 | 0 | 0 | pest or weed control at 31 g/ha [8]: 0%; pest or weed control at 31 g/ha [9]: 0%; plant injury at 31 g/ha [10]: 0% |
| CN1CC[C@@H](c2cccc(C(F)(F)F)c2)[C@H](C(=O)Nc2ccccc2F)C1=O [Compound 794] | 0 | 0 | 30 | 0 | 0 | 30 | 0 | 0 | 0 | 40 | 30 | 20 | 0 | 0 | 0 | 0 | 0 | 0 | 0 | 0 | pest or weed control at 31 g/ha [8]: 0%; pest or weed control at 31 g/ha [9]: 0%; plant injury at 31 g/ha [10]: 0% |
| CSc1ccccc1NC(=O)[C@H]1C(=O)N(C)C[C@@H]1c1cc(C)c(C)c(C)c1 [Compound 798] | 20 | 0 | 80 | 40 | 40 | 70 | 20 | 0 | 40 | 75 | 50 | 40 | 0 | 0 | 0 | 40 | 0 | 0 | 20 | 0 | pest or weed control at 31 g/ha [8]: 0%; pest or weed control at 31 g/ha [9]: 0%; plant injury at 31 g/ha [10]: 0% |
| CSc1ccccc1NC(=O)[C@H]1C(=O)N(C)C[C@@H]1c1ccc(C(F)F)cc1 [Compound 799] | 50 | 30 | 70 | 30 | 20 | 80 | 20 | 0 | 20 | 65 | 80 | 30 | 0 | 0 | 0 | 40 | 0 | 0 | 40 | 0 | pest or weed control at 31 g/ha [8]: 0%; pest or weed control at 31 g/ha [9]: 0%; plant injury at 31 g/ha [10]: 0% |
